Source: patent publication US20100285959A1, “HERBICIDAL MIXTURES” (priority 2006, published 2010)

Columns and labels:
Experiment in all cases: Test 25 field trial, postemergence, growth as percent of control
corn (ZEAMD) = format: in vivo, Zea mays ssp. indentata
Source text: (§1) Corn seeds (hybrid ‘Pioneer 31G96 RR’) were planted in mid spring season, 3.8 cm deep in a clay loam soil having 2% organic matter and a pH of 6.6. Plots were 6.1 m long by 3.0 m wide with rows spaced 76 cm apart. Seeds were spaced 15 cm apart within the rows. The field was managed using conventional tillage practices. […] Giant ragweed and Pennsylvania smartweed could only be evaluated 14 days after application. […] Results are the means of the three replicates. This growth inhibition data was converted to results in the form of “plant growth as a percent of control plant growth” using the calculation “100 minus growth inhibition”.
(§2) When this form of Colby's Equation is used, if the observed effects on weeds are less than the expected values, the mixture is synergistic.

velvetleaf (ABUTH) = format: in vivo, Abutilon theophrasti
Source text: as §1, §2

redroot pigweed (AMARE) = format: in vivo, Amaranthus retroflexus
Source text: as §1, §2

common ragweed (AMBEL) = format: in vivo, Ambrosia artemisiifolia
Source text: as §1, §2

giant ragweed (AMBTR) = format: in vivo, Ambrosia trifida; conditions: 14 DAA
Source text: as §1, §2

[1] = tested on: common lambsquarters (CHEAL); format: in vivo, Chenopodium album
Source text: as §1, §2

[2] = tested on: Pennsylvania smartweed (POLPY); format: in vivo, Polygonum pensylvanicum; conditions: 14 DAA
Source text: as §1, §2

giant foxtail (SETFA) = format: in vivo, Setaria faberi
Source text: as §1, §2

[3] = Nicosulfuron 15 g a.i./ha, 14 DAA
[4] = Nicosulfuron 15 g a.i./ha, 28 DAA
[5] = Nicosulfuron 15 g a.i./ha, 56 DAA
[6] = Diflufenzopyr 30 g a.i./ha, 14 DAA
[7] = Diflufenzopyr 30 g a.i./ha, 28 DAA
[8] = Diflufenzopyr 30 g a.i./ha, 56 DAA
[9] = Diflufenzopyr 45 g a.i./ha, 14 DAA
[10] = Diflufenzopyr 45 g a.i./ha, 28 DAA
[11] = Diflufenzopyr 45 g a.i./ha, 56 DAA

SMILES: COc1cc(OC)nc(NC(=O)NS(=O)(=O)c2ncccc2C(=O)N(C)C)n1 [Nicosulfuron]
- ZEAMD Obs (percent of control) (corn (ZEAMD); [3]): 100%
- ZEAMD Obs (percent of control) (corn (ZEAMD); [4]): 100%
- ZEAMD Obs (percent of control) (corn (ZEAMD); [5]): 100%
- ABUTH Obs (percent of control) (velvetleaf (ABUTH); [3]): 48%
- ABUTH Obs (percent of control) (velvetleaf (ABUTH); [4]): 73%
- ABUTH Obs (percent of control) (velvetleaf (ABUTH); [5]): 100%
- AMARE Obs (percent of control) (redroot pigweed (AMARE); [3]): 2%
- AMARE Obs (percent of control) (redroot pigweed (AMARE); [4]): 2%
- AMARE Obs (percent of control) (redroot pigweed (AMARE); [5]): 33%
- AMBEL Obs (percent of control) (common ragweed (AMBEL); [3]): 95%
- AMBEL Obs (percent of control) (common ragweed (AMBEL); [4]): 100%
- AMBEL Obs (percent of control) (common ragweed (AMBEL); [5]): 100%
- AMBTR Obs (percent of control) (giant ragweed (AMBTR); Nicosulfuron 15 g a.i./ha): 100%
- CHEAL Obs (percent of control) [1, 3]: 95%
- CHEAL Obs (percent of control) [1, 4]: 72%
- CHEAL Obs (percent of control) [1, 5]: 53%
- POLPY Obs (percent of control) ([2]; Nicosulfuron 15 g a.i./ha): 28%
- SETFA Obs (percent of control) (giant foxtail (SETFA); [3]): 15%
- SETFA Obs (percent of control) (giant foxtail (SETFA); [4]): 11%
- SETFA Obs (percent of control) (giant foxtail (SETFA); [5]): 7%

SMILES: C/C(=N\NC(=O)Nc1cc(F)cc(F)c1)c1ncccc1C(=O)O [Diflufenzopyr]
- ZEAMD Obs (percent of control) (corn (ZEAMD); [6]): 100%
- ZEAMD Obs (percent of control) (corn (ZEAMD); [7]): 83%
- ZEAMD Obs (percent of control) (corn (ZEAMD); [8]): 100%
- ZEAMD Obs (percent of control) (corn (ZEAMD); [9]): 100%
- ZEAMD Obs (percent of control) (corn (ZEAMD); [10]): 88%
- ZEAMD Obs (percent of control) (corn (ZEAMD); [11]): 100%
- ABUTH Obs (percent of control) (velvetleaf (ABUTH); [6]): 28%
- ABUTH Obs (percent of control) (velvetleaf (ABUTH); [7]): 58%
- ABUTH Obs (percent of control) (velvetleaf (ABUTH); [8]): 33%
- ABUTH Obs (percent of control) (velvetleaf (ABUTH); [9]): 15%
- ABUTH Obs (percent of control) (velvetleaf (ABUTH); [10]): 55%
- ABUTH Obs (percent of control) (velvetleaf (ABUTH); [11]): 40%
- AMARE Obs (percent of control) (redroot pigweed (AMARE); [6]): 48%
- AMARE Obs (percent of control) (redroot pigweed (AMARE); [7]): 63%
- AMARE Obs (percent of control) (redroot pigweed (AMARE); [8]): 30%
- AMARE Obs (percent of control) (redroot pigweed (AMARE); [9]): 47%
- AMARE Obs (percent of control) (redroot pigweed (AMARE); [10]): 55%
- AMARE Obs (percent of control) (redroot pigweed (AMARE); [11]): 55%
- AMBEL Obs (percent of control) (common ragweed (AMBEL); [6]): 60%
- AMBEL Obs (percent of control) (common ragweed (AMBEL); [7]): 73%
- AMBEL Obs (percent of control) (common ragweed (AMBEL); [8]): 83%
- AMBEL Obs (percent of control) (common ragweed (AMBEL); [9]): 57%
- AMBEL Obs (percent of control) (common ragweed (AMBEL); [10]): 60%
- AMBEL Obs (percent of control) (common ragweed (AMBEL); [11]): 75%
- AMBTR Obs (percent of control) (giant ragweed (AMBTR); Diflufenzopyr 45 g a.i./ha): 75%
- CHEAL Obs (percent of control) [1, 6]: 50%
- CHEAL Obs (percent of control) [1, 7]: 78%
- CHEAL Obs (percent of control) [1, 8]: 10%
- CHEAL Obs (percent of control) [1, 9]: 45%
- CHEAL Obs (percent of control) [1, 10]: 65%
- CHEAL Obs (percent of control) [1, 11]: 0%
- POLPY Obs (percent of control) ([2]; Diflufenzopyr 30 g a.i./ha): 30%
- POLPY Obs (percent of control) ([2]; Diflufenzopyr 45 g a.i./ha): 35%
- SETFA Obs (percent of control) (giant foxtail (SETFA); [6]): 40%
- SETFA Obs (percent of control) (giant foxtail (SETFA); [7]): 60%
- SETFA Obs (percent of control) (giant foxtail (SETFA); [8]): 68%
- SETFA Obs (percent of control) (giant foxtail (SETFA); [9]): 40%
- SETFA Obs (percent of control) (giant foxtail (SETFA); [10]): 58%
- SETFA Obs (percent of control) (giant foxtail (SETFA); [11]): 60%
